What was measured:
GCN2 kinase = GCN2 kinase (Homo sapiens, UniProt Q9P2K8); assay: GCN2 enzyme inhibition assay (Transcreener ADP2 fluorescence polarization); assay type: biochemical; conditions: 280 μM ATP
How it was run: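 Run at 25 °C in 25 mM Tris-HCl pH 7.5, 50 mM NaCl, 10 mM MgCl2, 1 mM DTT with 4 nM GCN2, 280 μM ATP and 200 μM (RS)7 peptide; compound (0–8 μM final) preincubated 10 min, reaction 1 h. ADP read by antibody/tracer FP; IC50 and Ki(app) from tight-binding fit.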

[1] = molecular target: intracellular GCN2 (phosphorylation of the GCN2 substrate eIF2α) (Homo sapiens, UniProt Q9P2K8); assay: GCN2 cellular inhibition assay (AlphaScreen SureFire P-eIF2α Ser51, borrelidin-treated U2OS cells); assay type: cell-based; conditions: biomarker assay, phosphorylated eIF2α Ser51 in borrelidin-treated U2OS cells
How it was run: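 Compound effect on GCN2 is gauged by eIF2α Ser51 phosphorylation in borrelidin-challenged U2OS cells (10 μM, 1 h). Top compound level is 40 μM final.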

[2] = compounds of Formula II, 4 nM GCN2 kinase
[3] = Enzyme activity for compounds of Formula IV, Ki(app), 25° C.

intracellular GCN2 (phosphorylation of the GCN2 substrate eIF2α), sequence (Q9P2K8 whole entry): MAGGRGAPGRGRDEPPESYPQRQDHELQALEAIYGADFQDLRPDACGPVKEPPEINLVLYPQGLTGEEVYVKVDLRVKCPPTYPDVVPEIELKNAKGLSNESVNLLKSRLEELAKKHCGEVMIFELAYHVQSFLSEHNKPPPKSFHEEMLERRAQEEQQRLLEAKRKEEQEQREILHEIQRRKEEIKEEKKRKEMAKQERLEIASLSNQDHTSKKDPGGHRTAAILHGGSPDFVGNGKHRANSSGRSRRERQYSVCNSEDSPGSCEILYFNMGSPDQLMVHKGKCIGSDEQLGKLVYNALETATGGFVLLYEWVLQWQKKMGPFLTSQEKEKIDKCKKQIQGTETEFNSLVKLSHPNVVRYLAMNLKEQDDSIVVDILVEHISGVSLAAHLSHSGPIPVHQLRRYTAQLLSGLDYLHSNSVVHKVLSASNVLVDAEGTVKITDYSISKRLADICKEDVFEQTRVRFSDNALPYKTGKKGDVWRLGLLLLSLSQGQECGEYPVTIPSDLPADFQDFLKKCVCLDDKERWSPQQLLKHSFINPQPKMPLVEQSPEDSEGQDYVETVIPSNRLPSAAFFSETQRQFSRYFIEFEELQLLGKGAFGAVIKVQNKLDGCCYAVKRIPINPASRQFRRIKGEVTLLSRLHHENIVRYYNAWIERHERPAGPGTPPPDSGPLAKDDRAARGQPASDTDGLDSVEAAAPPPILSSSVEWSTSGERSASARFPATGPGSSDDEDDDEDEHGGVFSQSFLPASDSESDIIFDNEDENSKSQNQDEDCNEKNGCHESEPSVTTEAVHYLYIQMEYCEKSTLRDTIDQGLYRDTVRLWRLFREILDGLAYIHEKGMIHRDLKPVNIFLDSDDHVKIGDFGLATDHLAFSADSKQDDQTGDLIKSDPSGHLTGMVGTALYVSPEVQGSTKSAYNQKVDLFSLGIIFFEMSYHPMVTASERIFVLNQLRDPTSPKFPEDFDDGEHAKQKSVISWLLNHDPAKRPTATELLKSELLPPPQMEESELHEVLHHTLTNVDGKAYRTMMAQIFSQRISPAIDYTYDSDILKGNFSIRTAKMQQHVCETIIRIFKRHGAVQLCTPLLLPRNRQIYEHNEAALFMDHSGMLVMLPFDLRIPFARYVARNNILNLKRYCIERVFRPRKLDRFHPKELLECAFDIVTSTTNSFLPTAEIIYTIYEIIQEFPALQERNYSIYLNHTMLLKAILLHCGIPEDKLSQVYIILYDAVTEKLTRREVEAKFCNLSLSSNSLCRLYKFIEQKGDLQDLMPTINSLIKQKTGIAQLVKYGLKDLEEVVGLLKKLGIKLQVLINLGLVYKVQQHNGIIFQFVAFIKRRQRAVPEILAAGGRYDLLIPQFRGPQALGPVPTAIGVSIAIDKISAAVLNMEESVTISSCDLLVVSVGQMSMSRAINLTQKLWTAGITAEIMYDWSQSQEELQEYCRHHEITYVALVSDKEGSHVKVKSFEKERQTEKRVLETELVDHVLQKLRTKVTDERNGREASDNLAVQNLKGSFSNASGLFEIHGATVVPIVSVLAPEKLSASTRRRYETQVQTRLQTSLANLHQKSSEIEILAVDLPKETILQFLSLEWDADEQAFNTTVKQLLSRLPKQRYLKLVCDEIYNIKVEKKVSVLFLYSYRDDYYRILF
GCN2 kinase, sequence (Q9P2K8 whole entry): as above

SMILES | Ki (GCN2 kinase; [2]) [nM] | IC50 ([1]; compounds of Formula II) [µM] | Ki (GCN2 kinase; [3]) [nM] | IC50 ([1]; compounds of Formula IV) [µM]
CC1CN(c2cc(-c3cnc4ccc(C(F)F)nn34)ncn2)CC1CNS(C)(=O)=O (centres unmarked) [II-238, N-((1-(6-(6-(Difluoromethyl)imidazo[1,2-b]pyridazin-3-yl)pyrimidin-4-yl)-4-methylpyrrolidin-3-yl)methyl)methanesulfonamide] | 10 to 1000 | 0.5 to 5 |  | 
FC(F)c1ccc2ncc(-c3ccnc(N4CCOC(c5cn[nH]c5)C4)c3)n2n1 (centres unmarked) [II-107, 4-(4-(6-(Difluoromethyl)imidazo[1,2-b]pyridazin-3-yl)pyridin-2-yl)-2-(1H-pyrazol-4-yl)morpholine] | 10 to 1000 | < 0.5 |  | 
CC1CN(C)C(CNS(C)(=O)=O)CN1c1cc(-c2cnc3ccc(C(F)F)nn23)ncn1 (centres unmarked) [II-423, N-((4-(6-(6-(Difluoromethyl)imidazo[1,2-b]pyridazin-3-yl)pyrimidin-4-yl)-1,5-dimethylpiperazin-2-yl)methyl)methanesulfonamide] | 10 to 1000 | > 5 |  | 
Cn1nc(C2CCCN(c3ccnc(-c4cnc5cnc(C(F)F)cn45)n3)C2)cc1O (centres unmarked) [IV-113, 3-(1-(2-(6-(Difluoromethyl)imidazo[1,2-a]pyrazin-3-yl)pyrimidin-4-yl)piperidin-3-yl)-1-methyl-1H-pyrazol-5-ol] |  |  | 100 to 1000 | > 5
O=S(=O)(NCC1CCCN(c2cc(-c3cnc4ccc(C(F)F)nn34)ncn2)C1)C1COC1 (centres unmarked) [II-289, N-((1-(6-(6-(Difluoromethyl)imidazo[1,2-b]pyridazin-3-yl)pyrimidin-4-yl)piperidin-3-yl)methyl)oxetane-3-sulfonamide] | 10 to 1000 | 0.5 to 5 |  | 
CC1C(c2cn[nH]c2)OCCN1c1ccnc(-c2cnc3cnc(Cl)cn23)n1 (single isomer, unassigned) [IV-245, 4-(2-(6-Chloroimidazo[1,2-a]pyrazin-3-yl)pyrimidin-4-yl)-3-methyl-2-(1H-pyrazol-4-yl)morpholine] |  |  | 100 to 1000 | > 5
Cc1nc(C2CCCN(c3ccnc(-c4cnc5cnc(Br)cn45)n3)C2)c[nH]1 (single isomer, unassigned) [IV-374, 6-Bromo-3-(4-(3-(2-methyl-1H-imidazol-4-yl)piperidin-1-yl)pyrimidin-2-yl)imidazo[1,2-a]pyrazine] |  |  | 10 to 100 | 0.5 to 5
CC1CN(c2ccnc(-c3cnc4cnc(C(F)(F)F)cn34)n2)C(C)C(c2cn[nH]c2)O1 (single isomer, unassigned) [IV-450, 3,6-Dimethyl-2-(1H-pyrazol-4-yl)-4-(2-(6-(trifluoromethyl)imidazo[1,2-a]pyrazin-3-yl)pyrimidin-4-yl)morpholine] |  |  | 100 to 1000 | 0.5 to 5
CC(C)c1nc(C2CCCN(c3ccnc(-c4cnc5cnc(Br)cn45)n3)C2)c[nH]1 (centres unmarked) [IV-384, 6-Bromo-3-(4-(3-(2-isopropyl-1H-imidazol-4-yl)piperidin-1-yl)pyrimidin-2-yl)imidazo[1,2-a]pyrazine] |  |  | 10 to 100 | 0.5 to 5
c1cc(N2CCOC(c3cn[nH]c3)C2)nc(-c2cnc3cnc(C4CC4)cn23)n1 (centres unmarked) [IV-4, 4-(2-(6-Cyclopropylimidazo[1,2-a]pyrazin-3-yl)pyrimidin-4-yl)-2-(1H-pyrazol-4-yl)morpholine] |  |  | < 10 | 0.5 to 5
CC1CN(c2cc(-c3cnc4ccc(C(F)F)nn34)ncn2)CC(CNS(C)(=O)=O)C1=O (centres unmarked) [II-525, N-((1-(6-(6-(Difluoromethyl)imidazo[1,2-b]pyridazin-3-yl)pyrimidin-4-yl)-5-methyl-4-oxopiperidin-3-yl)methyl)methanesulfonamide] | < 10 | < 0.5 |  | 
CC1C(CO)CCCN1c1cc(-c2cnc3ccc(C(F)F)nn23)ncn1 (single isomer, unassigned) [II-393, (1-(6-(6-(Difluoromethyl)imidazo[1,2-b]pyridazin-3-yl)pyrimidin-4-yl)-2-methylpiperidin-3-yl)methanol] | 10 to 1000 | > 5 |  | 
CC1C(CNS(C)(=O)=O)C(C)(O)CCN1c1cc(-c2cnc3ccc(C(F)F)nn23)ncn1 (centres unmarked) [II-366, N-((1-(6-(6-(Difluoromethyl)imidazo[1,2-b]pyridazin-3-yl)pyrimidin-4-yl)-4-hydroxy-2,4-dimethylpiperidin-3-yl)methyl)methanesulfonamide] | < 10 | < 0.5 |  | 
Cc1[nH]ncc1C1CN(c2ccnc(-c3cnc4cnc(C(F)F)cn34)n2)CC(C)N1 (single isomer, unassigned) [IV-463, 6-(Difluoromethyl)-3-(4-(3-methyl-5-(5-methyl-1H-pyrazol-4-yl)piperazin-1-yl)pyrimidin-2-yl)imidazo[1,2-a]pyrazine] |  |  | 100 to 1000 | > 5
CN(C[C@@H]1CN(c2cc(-c3cnc4ccc(C(F)F)nn34)ncn2)CCO1)S(C)(=O)=O [II-290, (S)—N-((4-(6-(6-(Difluoromethyl)imidazo[1,2-b]pyridazin-3-yl)pyrimidin-4-yl)morpholin-2-yl)methyl)-N-methylmethanesulfonamide] | 10 to 1000 | 0.5 to 5 |  | 
CS(=O)(=O)N1CC2CCCN(c3cc(-c4cnc5ccc(C(F)F)nn45)ncn3)C2C1 (centres unmarked) [II-320, 6-(Difluoromethyl)-3-(6-(6-(methylsulfonyl)octahydro-1H-pyrrolo[3,4-b]pyridin-1-yl)pyrimidin-4-yl)imidazo[1,2-b]pyridazine] | 10 to 1000 | > 5 |  | 
CCc1ccc2ncc(-c3cc(N4CCO[C@H](CNS(C)(=O)=O)C4)ncn3)n2n1 [II-196, (S)—N-((4-(6-(6-Ethylimidazo[1,2-b]pyridazin-3-yl)pyrimidin-4-yl)morpholin-2-yl)methyl)methanesulfonamide] | 10 to 1000 | > 5 |  | 
CC1CN(c2ncc(F)c(-c3cnc4cnc(C(F)(F)F)cn34)n2)CC(c2cn[nH]c2)N1 (centres unmarked) [IV-422, 3-(5-Fluoro-2-(3-methyl-5-(1H-pyrazol-4-yl)piperazin-1-yl)pyrimidin-4-yl)-6-(trifluoromethyl)imidazo[1,2-a]pyrazine] |  |  | 100 to 1000 | > 5
NC(=O)CCC1CCN(c2cc(-c3cnc4ccc(C(F)F)nn34)ncn2)CC1 [II-212, 3-(1-(6-(6-(Difluoromethyl)imidazo[1,2-b]pyridazin-3-yl)pyrimidin-4-yl)piperidin-4-yl)propanamide] | 10 to 1000 | 0.5 to 5 |  | 
CS(=O)(=O)N1CCCC(c2cc(-c3cnc4ccc(C(F)F)nn34)ncn2)CC1 (single isomer, unassigned) [II-276, 6-(Difluoromethyl)-3-(6-(1-(methylsulfonyl)azepan-4-yl)pyrimidin-4-yl)imidazo[1,2-b]pyridazine] | 10 to 1000 | 0.5 to 5 |  | 
NC(=O)C1COCCN(c2ccnc(-c3cnc4cnc(C(F)F)cn34)n2)C1 (centres unmarked) [IV-128, 4-(2-(6-(Difluoromethyl)imidazo[1,2-a]pyrazin-3-yl)pyrimidin-4-yl)-1,4-oxazepane-6-carboxamide] |  |  | 100 to 1000 | > 5
CS(C)(=O)=NC1CCCN(c2cc(-c3cnc4ccc(C(F)F)nn34)ncn2)C1 (single isomer, unassigned) [II-503, ((1-(6-(6-(Difluoromethyl)imidazo[1,2-b]pyridazin-3-yl)pyrimidin-4-yl)piperidin-3-yl)imino)dimethyl-λ^6-sulfanone] | 10 to 1000 | 0.5 to 5 |  | 

From US10988477B2 (Merck Patent GmbH, priority 2018, dated 2021)
